Laboratory results taken from BigSolDB 2.1.

O=C(N[C@@H](CO)C(=O)O)OCc1ccccc1
solubility (mole fraction)
Conditions	283.15 K	288.15 K	293.15 K	298.15 K	303.15 K	308.15 K	313.15 K	318.15 K	323.15 K
in 2-butanone	0.0333	0.037	0.0404	0.0456	0.052	0.0604	0.0726	0.0946	0.115
in acetone	0.0708	0.0762	0.0835	0.0955	0.11	0.127	0.15	0.176	0.205
in acetonitrile	0.00705	0.00841	0.00993	0.0126	0.0161	0.0213	0.0276	0.0385	0.0625
in ethyl acetate	0.0143	0.0163	0.0189	0.0217	0.0257	0.0296	0.0353	0.0429	0.0541
in isobutanol	0.0221	0.0246	0.0296	0.0365	0.0443	0.0552	0.0665	0.0912	0.115
in isopropanol	0.0443	0.0505	0.0591	0.0707	0.0841	0.103	0.123	0.152	0.185
in methyl acetate	0.0215	0.0262	0.0318	0.0365	0.0418	0.0477	0.0536	0.0635	0.0804
in n-butanol	0.0279	0.0313	0.0388	0.0463	0.0562	0.067	0.0821	0.102	0.137
in n-pentanol	0.0265	0.0286	0.0331	0.039	0.0455	0.0542	0.0628	0.0854	0.112
in n-propanol	0.0496	0.0567	0.0645	0.0722	0.0838	0.0956	0.11	0.127	0.175
in sec-butanol	0.0335	0.0385	0.0471	0.0585	0.0715	0.0862	0.109	0.13	0.159
in water	0.00097	0.00116	0.00133	0.00165	0.002	0.00247	0.00309	0.00448	0.00737
